Test results published in EP2970215B1, “PYRROLIDINE DERIVATIVES, PHARMACEUTICAL COMPOSITIONS CONTAINING THEM, AND THEIR USE IN THERAPY” (AbbVie Deutschland GmbH & Co. KG, priority 2013, dated 2014).

What follows are molecules tested against T1, human GlyT1c transporter (Homo sapiens, UniProt P48067) (assay: Radioligand binding assay using recombinant CHO cell membranes expressing human GlyT1). Details: radioligand binding to human GlyT1c transporter-expressing membranes.
T1 construct: expressed in transfected cells; host or cells: CHO cells (recombinant; line hGlyT1c_5_CHO is named for the uptake assay)
T1 sequence (P48067 1-706): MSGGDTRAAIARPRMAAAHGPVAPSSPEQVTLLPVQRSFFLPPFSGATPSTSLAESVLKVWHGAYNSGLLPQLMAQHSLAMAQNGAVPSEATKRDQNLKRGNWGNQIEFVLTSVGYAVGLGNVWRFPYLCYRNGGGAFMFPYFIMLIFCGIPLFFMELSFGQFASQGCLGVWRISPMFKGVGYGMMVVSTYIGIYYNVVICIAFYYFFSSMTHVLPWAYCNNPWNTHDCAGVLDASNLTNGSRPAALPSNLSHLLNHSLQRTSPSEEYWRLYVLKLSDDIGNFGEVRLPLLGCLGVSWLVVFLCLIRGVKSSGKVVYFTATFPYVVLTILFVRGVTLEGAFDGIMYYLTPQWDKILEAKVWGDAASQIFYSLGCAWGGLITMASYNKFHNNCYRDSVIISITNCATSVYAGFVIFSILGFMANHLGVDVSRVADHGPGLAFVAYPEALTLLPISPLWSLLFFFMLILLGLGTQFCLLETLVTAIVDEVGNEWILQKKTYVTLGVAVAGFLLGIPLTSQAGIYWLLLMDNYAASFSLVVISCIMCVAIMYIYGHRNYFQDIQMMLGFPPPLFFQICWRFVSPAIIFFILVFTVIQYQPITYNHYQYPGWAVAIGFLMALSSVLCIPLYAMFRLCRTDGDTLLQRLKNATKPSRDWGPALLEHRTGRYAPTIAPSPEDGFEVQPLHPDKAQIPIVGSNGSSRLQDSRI
From the text: 2. Radioligand binding assays using recombinant CHO cell membranes expressing human GlyT1: […]
`Cn1cnc(S(=O)(=O)N2C[C@@H](Nc3cc(C(F)(F)F)cnn3)[C@H](c3ccc(F)cc3)C2)c1` (relative stereo) [Example 383, N-{trans-4-(4-fluorophenyl)-1-[(1-methyl-1H-imidazol-4-yl)sulfonyl]pyrrolidin-3-yl} -5 - (trifluoromethyl)pyridazin-3-amine] gave a Ki of no more than 1 µM.
Molecule `Cn1cnc(S(=O)(=O)N2C[C@@H](NC(=O)c3cccc(C(F)(F)F)c3Cl)[C@H](c3cccc(Cl)c3)C2)c1` (relative stereo) [Example 56, 2-chloro-N-{trans-4-(3-chlorophenyl)-1-[(1-methyl-1H-imidazol-4-yl)sulfonyl]pyrrolidin-3-yl}-3-(trifluoromethyl)benzamide] has a Ki of no more than 1 µM.
`CCCCCNC(=O)[C@@H]1CN(S(=O)(=O)c2cn(C)cn2)C[C@H]1c1ccc(F)cc1` (relative stereo) [Example 626, Trans-4-(4-fluorophenyl)-1-[(1-methyl-1H-imidazol-4-yl)sulfonyl]-N-pentylpyrrolidine-3-carboxamide] gave a Ki of no more than 1 µM.
With `Cn1cnc(S(=O)(=O)N2C[C@@H](CNc3cccc(Cl)c3)[C@H](c3ccc(F)cc3)C2)c1` (relative stereo) [Example 333, 3-Chloro-N-({trans-4-(4-fluorophenyl)-1-[(1-methyl-1H-imidazol-4-yl)sulfonyl]pyrrolidin-3-yl}methyl)aniline] the Ki was no more than 1 µM.
Molecule `Cc1nc(C)c(S(=O)(=O)N2CC(Nc3ccc(F)c(F)c3)C(c3ccccc3)C2)s1` (stereo not shown) [Example 474, N-(3,4-difluorophenyl)-1-[(2,4-dimethyl-1,3-thiazol-5-yl)sulfonyl]-4-phenylpyrrolidin-3-amine] has a Ki of no more than 10 µM.
`Cn1cnc(S(=O)(=O)N2C[C@@H](Nc3cc(C(F)(F)F)ncn3)[C@H](C3CCCCC3)C2)c1` (relative stereo) [Example 531, N-{trans-4-cyclohexyl-1-[(1-methyl-1H-imidazol-4-yl)sulfonyl]pyrrolidin-3-yl}-6-(trifluoromethyl)pyrimidin-4-amine] gave a Ki of no more than 0.1 µM.
`Cn1cnc(S(=O)(=O)N2C[C@@H](S(=O)(=O)c3ccccc3)[C@H](c3ccccc3)C2)c1` (relative stereo) [Example 385, 1-methyl-4-{[trans-3-phenyl-4-(phenylsulfonyl)pyrrolidin-1-yl]sulfonyl}-1H-imidazole] showed a Ki of no more than 10 µM.
Molecule `Cc1cccc(C(=O)[C@@H]2CN(S(=O)(=O)c3cn(C)cn3)C[C@H]2c2ccc(F)cc2)c1` (relative stereo) [Example 300, {trans-4-(4-fluorophenyl)-1-[(1-methyl-1H-imidazol-4-yl)sulfonyl]pyrrolidin-3-yl}(3-methylphenyl)methanone] has a Ki of no more than 1 µM.
Work on `Cn1cnc(S(=O)(=O)N2C[C@@H](Nc3cccc(C(F)(F)F)c3)[C@H](c3ncccc3F)C2)c1` (relative stereo) [Example 798, Trans-4-(3-fluoropyridin-2-yl)-1-[(1-methyl-1H-imidazol-4-yl)sulfonyl]-N-[3-(trifluoromethyl)phenyl]pyrrolidin-3-amine] yielded a Ki of no more than 0.1 µM.
For `Cn1cnc(S(=O)(=O)N2C[C@H](Nc3ccc4c(c3)CCO4)[C@@H](c3ccccc3)C2)c1` [Example 671, (3R,4S)-N-(2,3-dihydro-1-benzofuran-5-yl)-1-[(1-methyl-1H-imidazol-4-yl)sulfonyl]-4-phenylpyrrolidin-3-amine], the Ki was no more than 1 µM.
With `Cc1cc(N[C@H]2CN(S(=O)(=O)c3cn(C)cn3)C[C@@H]2c2ccc(F)cc2)ccc1C(F)(F)F` [Example 676, (3R,4S)-4-(4-fluorophenyl)-1-[(1-methyl-1H-imidazol-4-yl)sulfonyl]-N-[3-methyl-4-(trifluoromethyl)phenyl]pyrrolidin-3-amine] the Ki was no more than 1 µM.
`Cn1cnc(S(=O)(=O)N2C[C@H](NC(=O)NCc3ccccc3Cl)[C@@H](c3ccc(F)cc3)C2)c1` [Example 705, 1-(2-chlorobenzyl)-3-{(3R,4S)-4-(4-fluorophenyl)-1-[(1-methyl-1H-imidazol-4-yl)sulfonyl]pyrrolidin-3-yl}urea] gave a Ki of no more than 1 µM.
With `Cn1cnc(S(=O)(=O)N2C[C@@H](C(=O)NCc3cccc(OC(F)(F)F)c3)[C@H](c3ccc(F)cc3)C2)c1` (relative stereo) [Example 661, Trans-4-(4-fluorophenyl)-1-[(1-methyl-1H-imidazol-4-yl)sulfonyl]-N-[3-(trifluoromethoxy)benzyl]pyrrolidine-3-carboxamide] the Ki was no more than 1 µM.
In the case of `CCCCCCNC(=O)[C@@H]1CN(S(=O)(=O)c2cn(C)cn2)C[C@H]1c1ccc(F)cc1` (relative stereo) [Example 627, Trans-4-(4-fluorophenyl)-N-hexyl-1-[(1-methyl-1H-imidazol-4-yl)sulfonyl]pyrrolidine-3-carboxamide], the Ki is reported as no more than 1 µM.
Molecule `Cn1cnc(S(=O)(=O)N2C[C@@H](NCc3ccc(Cl)cc3Cl)[C@H](c3ccccc3)C2)c1` (relative stereo) [Example 280, trans-N-(2,4-dichlorobenzyl)-1-[(1-methyl-1H-imidazol-4-yl)sulfonyl]-4-phenylpyrrolidin-3-amine] has a Ki of no more than 0.01 µM.
For `Cn1cnc(S(=O)(=O)N2C[C@@H](Nc3cccc(C(F)(F)F)c3)[C@H](c3cccc(F)c3)C2)c1` (relative stereo) [Example 189, trans-4-(3-fluorophenyl)-1-[(1-methyl-1H-imidazol-4-yl)sulfonyl]-N-[3-(trifluoromethyl)phenyl]pyrrolidin-3-amine], the Ki was no more than 0.1 µM.
`CCCCC(CC)CN[C@H]1CN(S(=O)(=O)c2cn(C)cn2)C[C@@H]1c1ccccc1` (stereo partly drawn) [Example 433, (3R,4S)-N-(2-ethylhexyl)-1-[(1-methyl-1H-imidazol-4-yl)sulfonyl]-4-phenylpyrrolidin-3-amine] was tested, and the Ki was no more than 0.1 µM.
`Cc1nc(-c2ccccc2)sc1CN[C@H]1CN(S(=O)(=O)c2cn(C)cn2)C[C@@H]1c1ccccc1` [Example 473, (3R,4S)-1-[(1-methyl-1H-imidazol-4-yl)sulfonyl]-N-[(4-methyl-2-phenyl-1,3-thiazol-5-yl)methyl]-4-phenylpyrrolidin-3-amine] was tested, and the Ki was no more than 0.1 µM.
`Cn1cnc(S(=O)(=O)N2CC(c3ccccc3)C(Cc3cccc(Cl)c3)C2=O)c1` (stereo not shown) [Example 331, 3-(3-chlorobenzyl)-1-[(1-methyl-1H-imidazol-4-yl)sulfonyl]-4-phenylpyrrolidin-2-one] gave a Ki of no more than 1 µM.

Same assay, conditions: radioligand binding, recombinant CHO cell membranes expressing human GlyT1c
Molecule `Cn1cnc(S(=O)(=O)N2C[C@@H](Nc3cccc(Cl)c3)[C@H](C3CCCCO3)C2)c1` (relative stereo) [Example 849, Trans-N-(3-chlorophenyl)-1-[(1-methyl-1H-imidazol-4-yl)sulfonyl]-4-(tetrahydro-2H-pyran-2-yl)pyrrolidin-3-amine] has a Ki of no more than 0.1 µM.
`Cn1cc(S(=O)(=O)N2C[C@@H](NCc3ccc(C(F)(F)F)cc3Cl)[C@H](c3ncccc3F)C2)nn1` (relative stereo) [Example 818, Trans-N-[2-chloro-4-(trifluoromethyl)benzyl]-4-(3-fluoropyridin-2-yl)-1-[(1-methyl-1H-1,2,3-triazol-4-yl)sulfonyl]pyrrolidin-3-amine] showed a Ki of no more than 0.01 µM.
For `Cc1cccc(N[C@@H]2CN(S(=O)(=O)c3cn(C)cn3)C[C@H]2C2CCOC2)c1` (relative stereo) [Example 828, trans-1-[(1-methyl-1H-imidazol-4-yl)sulfonyl]-N-(3-methylphenyl)-4-(tetrahydrofuran-3-yl)pyrrolidin-3-amine], the Ki was no more than 10 µM.
